Assay [1] concerns the target Beta-3 adrenergic receptor (Homo sapiens, UniProt P13945). Briefly: Agonist activity at human cloned adrenergic beta3 receptor expressed in CHO cells assessed as increase in cAMP production after 2 days by radioimmunoassay. It counts as functional, cell-based. (Changes in cAMP serve as a functional read-out for many G protein-coupled receptors.)
The target of assay [2] is Beta-2 adrenergic receptor (Homo sapiens, UniProt P07550).
Description: Agonist activity at human cloned adrenergic beta2 receptor expressed in CHO cells assessed as increase in cAMP production after 2 days by radioimmunoassay
Assay [3] has as its target Beta-1 adrenergic receptor (Homo sapiens, UniProt P08588).
Description: Agonist activity at human cloned adrenergic beta-1 receptor expressed in CHO cells assessed as increase in cAMP production after 2 days by radioimmunoassay
The next assay has as its system Mus musculus. Kind of assay: Hypoglycemic activity in diabetic kk mouse assessed as reduction in plasma glucose levels at 30 mg/kg, po administered for 4 days measured after 15 to 18 hrs by glucose oxidase method. It counts as functional. Details: scale not given: the % may be the effect or the level left.

Each structure is given as a SMILES string.

From ChEMBL document CHEMBL1158395, “Discovery of novel acetanilide derivatives as potent and selective beta3-adrenergic receptor agonists” (Eur J Med Chem, 2009) come the findings set out here.

In general, EC50 refers to the midpoint of the concentration-response curve.

Beta-1 adrenergic receptor, sequence (P08588 whole entry): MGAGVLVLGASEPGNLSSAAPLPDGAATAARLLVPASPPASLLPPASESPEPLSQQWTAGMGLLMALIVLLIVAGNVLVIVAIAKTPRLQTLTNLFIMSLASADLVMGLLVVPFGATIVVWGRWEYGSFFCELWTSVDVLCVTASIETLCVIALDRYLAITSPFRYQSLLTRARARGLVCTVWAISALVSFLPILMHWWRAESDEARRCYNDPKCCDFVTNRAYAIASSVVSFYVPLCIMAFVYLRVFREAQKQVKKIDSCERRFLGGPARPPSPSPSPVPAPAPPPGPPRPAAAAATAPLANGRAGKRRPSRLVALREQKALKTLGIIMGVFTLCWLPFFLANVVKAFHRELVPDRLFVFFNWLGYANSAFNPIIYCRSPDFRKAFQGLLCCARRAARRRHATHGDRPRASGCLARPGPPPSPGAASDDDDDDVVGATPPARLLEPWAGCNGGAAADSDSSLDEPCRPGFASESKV
Beta-3 adrenergic receptor, sequence (P13945 whole entry): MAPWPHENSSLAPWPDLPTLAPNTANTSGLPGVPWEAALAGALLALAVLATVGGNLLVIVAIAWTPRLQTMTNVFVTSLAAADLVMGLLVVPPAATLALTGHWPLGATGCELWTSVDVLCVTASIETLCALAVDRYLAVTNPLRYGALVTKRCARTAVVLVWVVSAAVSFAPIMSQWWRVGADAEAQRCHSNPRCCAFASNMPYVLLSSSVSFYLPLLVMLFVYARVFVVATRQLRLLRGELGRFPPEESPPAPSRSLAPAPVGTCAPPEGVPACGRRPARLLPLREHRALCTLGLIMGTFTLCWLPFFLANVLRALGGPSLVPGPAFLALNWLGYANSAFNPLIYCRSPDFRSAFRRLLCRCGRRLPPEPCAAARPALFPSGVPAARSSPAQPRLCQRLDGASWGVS
Beta-2 adrenergic receptor, sequence (P07550 whole entry): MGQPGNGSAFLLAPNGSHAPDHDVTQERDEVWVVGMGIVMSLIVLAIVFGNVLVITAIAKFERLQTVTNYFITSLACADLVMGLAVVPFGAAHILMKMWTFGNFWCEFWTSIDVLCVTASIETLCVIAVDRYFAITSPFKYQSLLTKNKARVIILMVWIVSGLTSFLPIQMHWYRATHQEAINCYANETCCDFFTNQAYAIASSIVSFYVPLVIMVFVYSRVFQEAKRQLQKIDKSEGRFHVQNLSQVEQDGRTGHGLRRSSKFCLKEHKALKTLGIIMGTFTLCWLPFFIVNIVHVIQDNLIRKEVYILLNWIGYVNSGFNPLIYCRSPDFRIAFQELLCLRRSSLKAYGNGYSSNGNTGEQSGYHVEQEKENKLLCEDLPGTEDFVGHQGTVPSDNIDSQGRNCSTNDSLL

As to `O=S(=O)(Nc1ccc(CCNC[C@H](O)COc2ccc(O)cc2)cc1)c1ccccc1`, the half-maximal effective concentration (EC50) was 78 nM in assay [1], greater than 100000 nM in assay [2] and 1600 nM in assay [3].
On to `O=C(Cc1ccccn1)Nc1ccc(CCNC[C@H](O)COc2ccc(O)cc2)cc1`, for which the results for the EC50 in assay [1], in assay [2] and in assay [3] were 290 nM, greater than 100000 nM and 2700 nM, respectively. In the assay with Mus musculus, the Activity is 32%.
In the case of `O=C(Cc1cccs1)Nc1ccc(CCNC[C@H](O)COc2ccc(O)cc2)cc1`, the EC50 is 500 nM in assay [1], greater than 100000 nM in assay [2] and 550 nM in assay [3].
In the same order, the values of `NC(C(=O)Nc1ccc(CCNC[C@H](O)COc2ccc(O)cc2)cc1)c1ccccc1` (some centres not stated) are 960 nM, greater than 100000 nM and 660 nM.
Regarding `O=C(Cc1ccccc1)Nc1ccc(CCNC[C@H](O)COc2ccc(O)cc2)cc1`, the EC50 is 1700 nM in assay [1], greater than 100000 nM in assay [2] and 760 nM in assay [3].
The matching figures for `COc1ccc(CC(=O)Nc2ccc(CCNC[C@H](O)COc3ccc(O)cc3)cc2)cc1`: 1700 nM, greater than 100000 nM and 280 nM.
The matching figures for `O=C(Nc1ccc(CCNC[C@H](O)COc2ccc(O)cc2)cc1)C(c1ccccc1)c1ccccc1`: 120 nM, greater than 100000 nM and 180 nM.
On to `O=C(Nc1ccc(CCNC[C@H](O)COc2ccc(O)cc2)cc1)C(O)c1ccccc1` (some centres not stated), for which the values for the EC50 in assay [1], in assay [2] and in assay [3] were 960 nM, greater than 100000 nM and 590 nM, respectively.
In the same order, the values of `O=C(Cc1ccsc1)Nc1ccc(CCNC[C@H](O)COc2ccc(O)cc2)cc1` are 550 nM, greater than 100000 nM and 490 nM.
The matching figures for `O=C(Cc1ccc2ccccc2n1)Nc1ccc(CCNC[C@H](O)COc2ccc(O)cc2)cc1`: 650 nM, greater than 100000 nM and 1700 nM.
In the same order, the values of `O=C(CC1C=Nc2ccccc21)Nc1ccc(CCNC[C@H](O)COc2ccc(O)cc2)cc1` (some centres not stated) are 490 nM, greater than 100000 nM and 550 nM.
Turning to `O=C(Cc1cnccn1)Nc1ccc(CCNC[C@H](O)COc2ccc(O)cc2)cc1`, the 50% effective concentration (EC50) in assay [1] was 83 nM; in assay [2] it was greater than 100000 nM; in assay [3], 3100 nM. Besides, in the assay with Mus musculus, the Activity came out at 13%.
For `COc1ccccc1CC(=O)Nc1ccc(CCNC[C@H](O)COc2ccc(O)cc2)cc1`, the 50% effective concentration (EC50) in assay [1] was 360 nM; in assay [2], greater than 100000 nM; in assay [3], 960 nM.
In the same order, the values of `COc1cccc(CC(=O)Nc2ccc(CCNC[C@H](O)COc3ccc(O)cc3)cc2)c1` are 560 nM, greater than 100000 nM and 710 nM.
For `O=C(Cc1ccc2ccccc2c1)Nc1ccc(CCNC[C@H](O)COc2ccc(O)cc2)cc1`, the EC50 was 240 nM in assay [1], greater than 100000 nM in assay [2] and 150 nM in assay [3].
The matching figures for `O=C(Cc1cccc(Cl)c1)Nc1ccc(CCNC[C@H](O)COc2ccc(O)cc2)cc1`: 890 nM, greater than 100000 nM and 83 nM.
In the case of `O=C(Cc1ccncc1)Nc1ccc(CCNC[C@H](O)COc2ccc(O)cc2)cc1`, the results for the concentration for a half-maximal effect (EC50) in assay [1], in assay [2] and in assay [3] were 520 nM, greater than 100000 nM and 260 nM, respectively.
In the same order, the values of `O=C(Cc1cccnc1)Nc1ccc(CCNC[C@H](O)COc2ccc(O)cc2)cc1` are 1500 nM, greater than 100000 nM and 910 nM.
Regarding `O=C(Cc1cc2ccccc2cn1)Nc1ccc(CCNC[C@H](O)COc2ccc(O)cc2)cc1`, the EC50 is 140 nM in assay [1], greater than 100000 nM in assay [2] and 350 nM in assay [3].
On to `O=C(Cc1ncccn1)Nc1ccc(CCNC[C@H](O)COc2ccc(O)cc2)cc1`, for which the EC50 in assay [1] is 110 nM; in assay [2] it was greater than 100000 nM; in assay [3], greater than 100000 nM. In addition, the Activity in the assay with Mus musculus turned out to be 20%.
As to `O=C(Cc1ccc(Cl)cc1)Nc1ccc(CCNC[C@H](O)COc2ccc(O)cc2)cc1`, the 50% effective concentration (EC50) in assay [1] was 1200 nM; in assay [2], greater than 100000 nM; in assay [3], 190 nM.
In the same order, the values of `O=C(Cc1ccccc1Cl)Nc1ccc(CCNC[C@H](O)COc2ccc(O)cc2)cc1` are 740 nM, greater than 100000 nM and 720 nM.
For the compound `O=C(Cc1cccc2ccccc12)Nc1ccc(CCNC[C@H](O)COc2ccc(O)cc2)cc1`, the concentration for a half-maximal effect (EC50) is 470 nM in assay [1], greater than 100000 nM in assay [2] and 600 nM in assay [3].
